#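 Compound exposure: 48 hours, 5 concentrations, 96-well plates. GI50 = concentration required for 50% inhibition of growth.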 The source made the active and inactive calls. Rule as the data show it: active = GI50 up to about 1.1 µM and inactive = higher.
# Tests used:
# Experiment in all cases: NCI-60 cell line screen, 48 h
# 786-0 = system: 786-0
# A498 = system: A498
# A549 = system: A549
# ACHN = system: ACHN
# BT-549 = system: BT-549
# CAKI-1 = system: CAKI-1
# CCRF-CEM = system: CCRF-CEM
# COLO 205 = system: COLO 205
# DU-145 = system: DU-145
# EKVX = system: EKVX
# HCT-116 = system: HCT-116
# HCT-15 = system: HCT-15
# HL-60 = system: HL-60
# HOP-62 = system: HOP-62
# HOP-92 = system: HOP-92
# Hs-578T = system: Hs-578T
# IGROV-1 = system: IGROV-1
# K562 = system: K562
# KM12 = system: KM12
# LOX IMVI = system: LOX IMVI
# MCF7 = system: MCF7
# MDA-MB-231 = system: MDA-MB-231
# MDA-MB-435 = system: MDA-MB-435
# MOLT-4 = system: MOLT-4
# NCI-H460 = system: NCI-H460
# NCI-H522 = system: NCI-H522
# OVCAR-3 = system: OVCAR-3
# OVCAR-4 = system: OVCAR-4
# OVCAR-5 = system: OVCAR-5
# PC-3 = system: PC-3
# RPMI-8226 = system: RPMI-8226
# RXF 393 = system: RXF 393
# SF-295 = system: SF-295
# SF-539 = system: SF-539
# SK-MEL-28 = system: SK-MEL-28
# SK-MEL-2 = system: SK-MEL-2
# SK-MEL-5 = system: SK-MEL-5
# SK-OV-3 = system: SK-OV-3
# SN12C = system: SN12C
# SNB-19 = system: SNB-19
# SNB-75 = system: SNB-75
# SR = system: SR
# SW-620 = system: SW-620
# T47D = system: T47D
# TK-10 = system: TK-10
# U-251 = system: U-251
# UACC-257 = system: UACC-257
# UACC-62 = system: UACC-62
# UO-31 = system: UO-31
# Malme-3M = system: Malme-3M
# HT-29 = system: HT-29
# M14 = system: M14
# NCI-H226 = system: NCI-H226
# NCI-H23 = system: NCI-H23
# NCI/ADR-RES = system: NCI/ADR-RES
# OVCAR-8 = system: OVCAR-8
# SF-268 = system: SF-268
structure (smiles),measurement,setting,value
CCOC(=O)c1cccn1S(=O)(=O)c1cc(Cl)ccc1NC(=O)CC,GI50,786-0,57 µM (inactive)
same,GI50,A498,> 100 µM (inactive)
same,GI50,A549,54.1 µM (inactive)
same,GI50,ACHN,> 100 µM (inactive)
same,GI50,BT-549,52.6 µM (inactive)
same,GI50,CAKI-1,> 100 µM (inactive)
same,GI50,CCRF-CEM,> 100 µM (inactive)
same,GI50,COLO 205,16.3 µM (inactive)
same,GI50,DU-145,> 100 µM (inactive)
same,GI50,EKVX,61.7 µM (inactive)
same,GI50,HCT-116,40 µM (inactive)
same,GI50,HCT-15,44 µM
same,GI50,HL-60,> 100 µM (inactive)
same,GI50,HOP-62,> 100 µM (inactive)
same,GI50,HOP-92,> 100 µM (inactive)
same,GI50,Hs-578T,28.9 µM (inactive)
same,GI50,IGROV-1,> 100 µM (inactive)
same,GI50,K562,51.8 µM (inactive)
same,GI50,KM12,44.9 µM (inactive)
same,GI50,LOX IMVI,70.5 µM (inactive)
same,GI50,MCF7,> 100 µM (inactive)
same,GI50,MDA-MB-231,39.2 µM (inactive)
same,GI50,MDA-MB-435,33.3 µM (inactive)
same,GI50,MOLT-4,47.8 µM (inactive)
same,GI50,NCI-H460,50.1 µM (inactive)
same,GI50,NCI-H522,18.5 µM (inactive)
same,GI50,OVCAR-3,> 100 µM (inactive)
same,GI50,OVCAR-4,60.1 µM (inactive)
same,GI50,OVCAR-5,> 100 µM (inactive)
same,GI50,PC-3,59.2 µM (inactive)
same,GI50,RPMI-8226,75.9 µM (inactive)
same,GI50,RXF 393,91 µM (inactive)
same,GI50,SF-295,35.2 µM (inactive)
same,GI50,SF-539,> 100 µM (inactive)
same,GI50,SK-MEL-28,> 100 µM (inactive)
same,GI50,SK-MEL-2,53.5 µM (inactive)
same,GI50,SK-MEL-5,20.2 µM (inactive)
same,GI50,SK-OV-3,43.3 µM (inactive)
same,GI50,SN12C,> 100 µM (inactive)
same,GI50,SNB-19,> 100 µM (inactive)
same,GI50,SNB-75,33.3 µM (inactive)
same,GI50,SR,> 10 µM (inactive)
same,GI50,SW-620,> 100 µM (inactive)
same,GI50,T47D,44.9 µM (inactive)
same,GI50,TK-10,> 100 µM (inactive)
same,GI50,U-251,> 100 µM (inactive)
same,GI50,UACC-257,> 100 µM (inactive)
same,GI50,UACC-62,58.9 µM (inactive)
same,GI50,UO-31,15.4 µM (inactive)
CN(C)C1C(=O)C(C(N)=O)=C(O)C2(O)C(O)=C3C(=O)c4c(O)cccc4C(C)(O)C3CC12 (stereo not drawn),GI50,A498,52.2 µM (inactive)
same,GI50,A549,86.1 µM (inactive)
same,GI50,BT-549,64 µM (inactive)
same,GI50,CAKI-1,62.4 µM (inactive)
same,GI50,DU-145,> 100 µM (inactive)
same,GI50,EKVX,> 100 µM (inactive)
same,GI50,HCT-15,81.1 µM
same,GI50,Hs-578T,63.4 µM (inactive)
same,GI50,IGROV-1,93.3 µM (inactive)
same,GI50,KM12,> 100 µM (inactive)
same,GI50,LOX IMVI,59 µM (inactive)
same,GI50,MCF7,> 100 µM (inactive)
same,GI50,Malme-3M,86.1 µM (inactive)
same,GI50,NCI-H522,86.7 µM (inactive)
same,GI50,PC-3,76.7 µM (inactive)
same,GI50,RPMI-8226,81.7 µM (inactive)
same,GI50,RXF 393,66.5 µM (inactive)
same,GI50,SK-OV-3,55.6 µM (inactive)
same,GI50,T47D,> 100 µM (inactive)
same,GI50,TK-10,> 100 µM (inactive)
N/C(=N\c1ccc(Cl)cc1)NS(=O)(=O)c1ccc(-c2ncccc2C(F)(F)F)s1,GI50,786-0,17.1 µM (inactive)
same,GI50,A498,16.7 µM (inactive)
same,GI50,A549,15.2 µM (inactive)
same,GI50,ACHN,16 µM (inactive)
same,GI50,BT-549,14.9 µM (inactive)
same,GI50,COLO 205,42 µM (inactive)
same,GI50,DU-145,17.1 µM (inactive)
same,GI50,EKVX,4.61 µM (inactive)
same,GI50,HCT-116,14 µM (inactive)
same,GI50,HCT-15,16.6 µM
same,GI50,HL-60,15.2 µM (inactive)
same,GI50,HOP-62,18.2 µM (inactive)
same,GI50,HOP-92,14.7 µM (inactive)
same,GI50,HT-29,19.4 µM (inactive)
same,GI50,Hs-578T,17.1 µM (inactive)
same,GI50,IGROV-1,12 µM (inactive)
same,GI50,K562,13.1 µM (inactive)
same,GI50,KM12,23.9 µM (inactive)
same,GI50,LOX IMVI,14 µM (inactive)
same,GI50,M14,14.6 µM (inactive)
same,GI50,MCF7,14.7 µM (inactive)
same,GI50,MDA-MB-231,13.9 µM (inactive)
same,GI50,MOLT-4,12.7 µM (inactive)
same,GI50,Malme-3M,15.2 µM (inactive)
same,GI50,NCI-H226,17.2 µM (inactive)
same,GI50,NCI-H23,13.5 µM (inactive)
same,GI50,NCI-H460,13.1 µM (inactive)
same,GI50,NCI-H522,10.4 µM (inactive)
same,GI50,NCI/ADR-RES,18.8 µM (inactive)
same,GI50,OVCAR-3,17.6 µM (inactive)
same,GI50,OVCAR-4,18.5 µM (inactive)
same,GI50,OVCAR-5,24.3 µM (inactive)
same,GI50,OVCAR-8,14.6 µM (inactive)
same,GI50,PC-3,13.1 µM (inactive)
same,GI50,RPMI-8226,17.3 µM (inactive)
same,GI50,RXF 393,18.3 µM (inactive)
same,GI50,SF-268,16.5 µM (inactive)
same,GI50,SF-295,16.1 µM (inactive)
same,GI50,SF-539,25.8 µM (inactive)
same,GI50,SK-MEL-28,16.9 µM (inactive)
same,GI50,SK-MEL-2,15.8 µM (inactive)
same,GI50,SK-MEL-5,20.5 µM (inactive)
same,GI50,SK-OV-3,17.4 µM (inactive)
same,GI50,SN12C,17.2 µM (inactive)
same,GI50,SNB-19,18.6 µM (inactive)
same,GI50,SNB-75,18.8 µM (inactive)
same,GI50,SR,10.5 µM (inactive)
same,GI50,SW-620,15.3 µM (inactive)
same,GI50,T47D,12.3 µM (inactive)
same,GI50,TK-10,13.4 µM (inactive)
same,GI50,U-251,13.1 µM (inactive)
same,GI50,UACC-257,3.17 µM (inactive)
same,GI50,UACC-62,11.3 µM (inactive)
same,GI50,UO-31,17.2 µM (inactive)
Cc1cccc(N2C(=O)C3c4[nH]c5ccc(C)cc5c4C4CCC(C(C)(C)C)CC4C3C2=O)c1 (stereo not drawn),GI50,A549,15.8 µM (inactive)
same,GI50,BT-549,27.4 µM (inactive)
same,GI50,CAKI-1,31.6 µM (inactive)
same,GI50,CCRF-CEM,21.4 µM (inactive)
same,GI50,COLO 205,17.4 µM (inactive)
same,GI50,DU-145,16.1 µM (inactive)
same,GI50,EKVX,10.4 µM (inactive)
same,GI50,HCT-15,53.7 µM
same,GI50,HL-60,17.7 µM (inactive)
same,GI50,HOP-62,15.8 µM (inactive)
same,GI50,HOP-92,15.7 µM (inactive)
same,GI50,HT-29,21.4 µM (inactive)
same,GI50,IGROV-1,26.5 µM (inactive)
same,GI50,K562,23.9 µM (inactive)
same,GI50,KM12,15.8 µM (inactive)
same,GI50,LOX IMVI,17.2 µM (inactive)
same,GI50,M14,20.2 µM (inactive)
same,GI50,MDA-MB-231,18.8 µM (inactive)
same,GI50,MDA-MB-435,40.9 µM (inactive)
same,GI50,MOLT-4,8.97 µM (inactive)
same,GI50,Malme-3M,24.3 µM (inactive)
same,GI50,NCI-H226,17.1 µM (inactive)
same,GI50,NCI-H23,26.1 µM (inactive)
same,GI50,NCI-H460,13.3 µM (inactive)
same,GI50,NCI-H522,19.9 µM (inactive)
same,GI50,NCI/ADR-RES,17.6 µM (inactive)
same,GI50,OVCAR-3,13.6 µM (inactive)
same,GI50,OVCAR-4,23.1 µM (inactive)
same,GI50,OVCAR-5,32.7 µM (inactive)
same,GI50,OVCAR-8,19 µM (inactive)
same,GI50,PC-3,13.7 µM (inactive)
same,GI50,RPMI-8226,15.5 µM (inactive)
same,GI50,SF-268,15.5 µM (inactive)
same,GI50,SF-295,19.4 µM (inactive)
same,GI50,SK-MEL-28,42.6 µM (inactive)
same,GI50,SK-MEL-2,38.1 µM (inactive)
same,GI50,SK-MEL-5,32.5 µM (inactive)
same,GI50,SNB-19,25.2 µM (inactive)
same,GI50,SW-620,21 µM (inactive)
same,GI50,T47D,14.3 µM (inactive)
same,GI50,TK-10,24.6 µM (inactive)
same,GI50,U-251,23.6 µM (inactive)
same,GI50,UACC-257,46.3 µM (inactive)
same,GI50,UACC-62,23.3 µM (inactive)
same,GI50,UO-31,43.4 µM (inactive)

# From ChEMBL document CHEMBL1201862, “PubChem BioAssay data set” (2004)
